Source: ChEMBL document CHEMBL6115010, “Targeting glioma with heteroaromatic alkaloids: A review of potential therapeutics” (Bioorg Med Chem, 2025)
Values after ≈ are worked out from the molar mass of the structure shown. Values belong to the compound of their own block, whether it stands above or below them.

Key:
U-251 [1] = assay: Antiproliferative activity against human U-251MG cells assessed as reduction in cell viability incubated for 48 hrs by SRB assay; type: functional, cell-based; details: U-251, 48 h
[2] = Cytotoxicity against rat RT-2 cells assessed as reduction in cell growth by measuring lethal concentration incubated for 24 hrs by MTT assay; type: functional; details: RT2, read-out: LC50 (the source's name)
[3] = Cytotoxicity against rat RT-2 cells assessed as reduction in cell growth by measuring lethal concentration incubated for 72 hrs by MTT assay; type: functional; details: RT2, read-out: LC50 (the source's name)
ECV-304 [4] = assay: Cytotoxicity against human ECV-304 cells assessed as reduction in cell growth by measuring lethal concentration incubated for 72 hrs by MTT assay; type: functional; details: read-out: LC50 (the source's name)
ECV-304 [5] = assay: Cytotoxicity against human ECV-304 cells assessed as reduction in cell growth by measuring lethal concentration incubated for 24 hrs by MTT assay; type: functional; details: read-out: LC50 (the source's name)
U-87 MG [6] = assay: Antiproliferative activity against human U-87 MG cells assessed as reduction in cell growth measured for 24 hrs by MTT assay; type: functional, cell-based, U-87MG ATCC
U-251 [7] = assay: Antiproliferative activity against human U-251MG cells assessed as reduction in cell growth measured for 24 hrs by MTT assay; type: functional, cell-based; details: U-251, 24 h
[8] = Antiproliferative activity against human SWO-38cells assessed as reduction in cell growth measured for 24 hrs by MTT assay; type: functional, cell-based; details: SWO-38, 24 h
U-87 MG [9] = assay: Antiproliferative activity against human U-87 MG cells measured for 48 hrs by MTT assay; type: functional, cell-based, U-87MG ATCC
U-87 MG [10] = assay: Antiproliferative activity against human U-87 MG cells by MTT assay; type: functional, cell-based, U-87MG ATCC
C6 [11] = assay: Antiproliferative activity against rat C6 cells by MTT assay; type: functional, cell-based
U-87 MG [12] = assay: Antiproliferative activity against human U-87 MG cells assessed as reduction in cell viability incubated for 72 hrs by WST-8 reagent based assay; type: functional, U-87MG ATCC
T98G [13] = assay: Antiproliferative activity against human T98G cells assessed as reduction in cell viability incubated for 72 hrs by WST-8 reagent based assay; type: functional
U-87 MG [14] = assay: Antitumor activity against human U-87 MG cells xenografted in BALB/c nude mouse model assessed as reduction in tumor volume at 40 mg/kg, ip administered twice a day for 4 days relative to control; type: functional, U-87MG ATCC; design: scale not given: the % may be the effect or the level left; details: time 4 day
[15] = Inhibition of colony formation in human U-251MG cells assessed as reduction in number of cell clone measured after 14 days by crystal violet staining based microscopic analysis; type: functional; details: 336 h
T98G [16] = assay: Inhibition of colony formation in human T98G cells assessed as reduction in number of cell clone measured after 14 days by crystal violet staining based microscopic analysis; type: functional; details: 336 h
T98G [17] = assay: Anticancer activity against human T98G cells assessed as reduction in cell viability; type: functional, cell-based
[18] = Anticancer activity against human U373 MG cells assessed as reduction in cell viability incubated for 72 hrs by MTT assay; type: functional, cell-based, U-373MG ATCC
SF-268 = assay: Antiproliferative activity against human SF-268 cells assessed as inhibition of cell growth by MTT assay; type: functional; details: read-out: ED50 (the source's name)
U-251 [19] = assay: Induction of apoptosis in human U-251MG cells assessed as increase in PARP cleavage at 12.5 to 100 uM incubated for 24 hrs by Western blot analysis; type: functional; details: dose 12.5-100 µM
[20] = target: T1, Dual specificity tyrosine-phosphorylation-regulated kinase 1A (Homo sapiens, UniProt Q13627); assay: Inhibition of DYRK1A (unknown origin) by TR-FRET assay
[21] = target: T1, Dual specificity tyrosine-phosphorylation-regulated kinase 1A; assay: Inhibition of DYRK1A (unknown origin) incubated for 2 hrs in presence of [gamma-33P]-ATP by radioactivity based assay
H4 = assay: Antiproliferative activity against human H4 cells assessed as reduction in cell viability incubated for 72 hrs by Presto-Blue cell viability assay; type: functional, cell-based; details: H4, 72 h
U-87 MG [22] = assay: Antiproliferative activity against human U-87 MG cells assessed as reduction in cell viability incubated for 72 hrs by Presto-Blue cell viability assay; type: functional, cell-based, U-87MG ATCC
U-87 MG [23] = assay: Antitumor activity against human U-87 MG cells xenografted in mouse model assessed as reduction in tumor growth at 15 mg/kg, ip administered once daily for 5 days relative to control; type: functional, U-87MG ATCC; design: scale not given: the % may be the effect or the level left; details: time 5 day
U-87 MG [24] = assay: Antitumor activity against human U-87 MG cells xenografted in mouse model assessed as reduction in tumor growth at 60 mg/kg, ip administered once daily for 5 days relative to control; type: functional, U-87MG ATCC; design: scale not given: the % may be the effect or the level left; details: time 5 day
C6 [25] = assay: Anticancer activity against rat C6 cells assessed as reduction in cell growth at 10 ug/ml incubated for 24 hrs by MTT assay relative to control; type: functional
C6 [26] = assay: Antiproliferative activity against rat C6 cells assessed as reduction in cell growth measured for 96 hrs by WST-1 assay; type: functional, cell-based; details: C6, 96 h
C6 [27] = assay: Antitumor activity against rat C6 cells implanted in athymic nude mouse assessed as reduction in tumor volume at 300 mg/kg, sc administered once daily for 21 days relative to control; type: functional; design: scale not given: the % may be the effect or the level left; details: time 21 day
C6 [28] = assay: Antitumor activity against rat C6 cells implanted in athymic nude mouse assessed as reduction in tumor volume at 300 mg/kg, IC administered once daily for 21 days relative to control; type: functional; design: scale not given: the % may be the effect or the level left; details: time 21 day
[29] = Downregulation of HIF-1alpha expression in human U-87 MG cells at 150 uM relative to control; type: functional, U-87MG ATCC
[30] = Downregulation of HIF-1alpha expression in human T98G cells at 150 uM relative to control; type: functional
HUVEC [31] = assay: Antivascular activity against HUVEC cells assessed as inhibition of capillary tube formation at 50 incubated for 6 hrs by microscopy based analysis relative to control; type: functional, Homo sapiens; design: scale not given: the % may be the effect or the level left
HUVEC [32] = assay: Antivascular activity against HUVEC cells assessed as inhibition of capillary tube formation at 150 incubated for 6 hrs by microscopy based analysis relative to control; type: functional, Homo sapiens; design: scale not given: the % may be the effect or the level left
HUVEC [33] = assay: Antivascular activity against HUVEC cells assessed as inhibition of capillary tube formation at 100 incubated for 6 hrs by microscopy based analysis relative to control; type: functional, Homo sapiens; design: scale not given: the % may be the effect or the level left
[34] = Antiproliferative activity against human TMZ-sensitive A-172 cells assessed as reduction in cell growth incubated for 48 hrs by MTT assay; type: functional, cell-based, TMZ-sensitive A-172 cell; details: A 172, 48 h
[35] = Antiproliferative activity against human TMZ-resistant A-172 cells assessed as reduction in cell growth incubated for 48 hrs by MTT assay; type: functional, cell-based; details: TMZ-resistant A-172 cell
[36] = Antiproliferative activity against human TMZ-sensitive LN-229 cells assessed as reduction in cell growth incubated for 48 hrs by MTT assay; type: functional, cell-based, TMZ-sensitive LN-229 cell; details: LN-229, 48 h
[37] = Antiproliferative activity against human TMZ-resistant LN-229 cells assessed as reduction in cell growth incubated for 48 hrs by MTT assay; type: functional, cell-based, TMZ-resistant LN-229 cell; details: LN-229, 48 h
[38] = Antiproliferative activity against human TMZ-sensitive U-251MG cells assessed as reduction in cell growth incubated for 48 hrs by MTT assay; type: functional, cell-based, TMZ-sensitive U-251MG cell; details: U-251, 48 h
[39] = Antiproliferative activity against human TMZ-resistant U-251MG cell assessed as reduction in cell growth incubated for 48 hrs by MTT assay; type: functional, cell-based; details: U-251, 48 h
[40] = Antitumor activity against mouse GL261 cells implanted in C57BL/6 mouse model assessed as increase in tumor growth delay under radiation at 150 mg/kg via oral gavage (reference value: 12.7+/-2.8 days); type: functional
[41] = Antitumor activity against mouse GL261 cells implanted in C57BL/6 mouse model assessed as increase in tumor growth delay without radiation at 150 mg/kg via oral gavage (reference value: 12.7+/-2.8 days); type: functional
[42] = Antitumor activity against mouse GL261 cells implanted in C57BL/6 mouse model assessed as fold reduction in cell proliferation under radiation at 150 mg/kg via oral gavage (reference value: 3.3 fold); type: functional
T98G [43] = assay: Induction of apoptosis in human T98G cells assessed as fold increase in apoptosis at 10 uM under radiation measured after 24 hrs by annexin V and PI staining based flow cytometry analysis (Rvb=3.7); type: functional
U-87 MG [44] = assay: Antiproliferative activity against human U-87 MG cells assessed as reduction in inhibition of cell growth incubated for 72 hrs by MTT assay; type: functional, cell-based, U-87MG ATCC
U-118-MG = assay: Antiproliferative activity against human U-118-MG cells assessed as reduction in inhibition of cell growth incubated for 72 hrs by MTT assay; type: functional, cell-based
LN-229 = assay: Antiproliferative activity against human LN-229 cells assessed as reduction in inhibition of cell growth incubated for 72 hrs by MTT assay; type: functional, cell-based; details: LN-229, 72 h
T98G [45] = assay: Antiproliferative activity against human T98G cells assessed as reduction in inhibition of cell growth incubated for 72 hrs by MTT assay; type: functional, cell-based

SMILES: O[C@H]1[C@H]2c3cc4c(cc3CN3CCC(=C[C@@H]1O)[C@H]23)OCO4 [LYCORINE]
IC50 (U-251 [1]): 10 µM

SMILES: COc1ccc2cc1Oc1ccc(cc1)C[C@H]1c3cc(c(OC)cc3CCN1C)Oc1c(OC)c(OC)cc3c1[C@H](C2)N(C)CC3 [FANCHININ]
CC50 [2]: 22.6 µM | CC50 [3]: 11.3 µM | CC50 (ECV-304 [4]): 25.1 µM | CC50 (ECV-304 [5]): 34.2 µM | IC50 (U-87 MG [6]): 10.8 µg/mL (≈ 17.4 µM) | IC50 (U-251 [7]): 56.1 µg/mL (≈ 90.1 µM) | IC50 [8]: 50 µg/mL (≈ 80.4 µM)

IC50 (U-87 MG [9]): 5.21 µM | IC50 (U-87 MG [10]): 3.7 µM
SMILES: CN1c2ccccc2C(=O)N2CCc3c([nH]c4ccccc34)[C@H]21
IC50 (C6 [11]): 4.3 µM

SMILES: COc1ccc(Cc2nccc3cc(OC)c(OC)cc23)cc1OC [PAPAVERINE]
EC50 (U-87 MG [12]): 42 µM | EC50 (T98G [13]): 42 µM | Activity (U-87 MG [14]): 63% | EC50 [15]: 11 µM | EC50 (T98G [16]): 4.5 µM | EC50 (T98G [17]): 3.1 µM

SMILES: COc1cc2c(cc1O)CCN[C@]21CS[C@@H]2c3c(OC(C)=O)c(C)c4c(c3[C@@H](COC1=O)N1[C@@H]2[C@H]2c3c(cc(C)c(OC)c3O)C[C@@H]([C@@H]1C#N)N2C)OCO4
IC50 [18]: 0.0031 µM

SMILES: O=C1N[C@@H]2C(=C[C@H](O)[C@@H](O)[C@H]2O)c2cc3c(c(O)c21)OCO3 [NARCICLASINE]
EC50 (SF-268): 0.021 µg/mL (≈ 0.0683 µM)

SMILES: Cc1nccc2c1[nH]c1cc(O)ccc12
Activity (U-251 [19]): 486% | IC50 [20]: 0.07 µM | IC50 [21]: 0.016 µM | IC50 (H4): 10.9 µM | IC50 (U-87 MG [22]): 19.1 µM | Activity (U-87 MG [23]): 28.2% | Activity (U-87 MG [24]): 38.1%

IC50 (U-87 MG [44]): 131 µM
SMILES: COc1ccc2c(c1OC)C(=O)O[C@@H]2[C@H]1c2c(cc3c(c2OC)OCO3)CCN1C [NOSCAPINE]
inhibition at 10 µg/mL (C6 [25]): 49% | IC50 (C6 [26]): 250 µM | Activity (C6 [27]): 60% | Activity (C6 [28]): 78% | Activity [29]: 60% | Activity [30]: 90% | Activity (HUVEC [31]): 30% | Activity (HUVEC [32]): 40% | Activity (HUVEC [33]): 40% | IC50 [34]: 20 µM | IC50 [35]: 60 µM | IC50 [36]: 70 µM | IC50 [37]: 75 µM | IC50 [38]: 40 µM | IC50 [39]: 30 µM | Time [40]: 18 days | Time [41]: 8 days | fold change (FC) [42]: 5.6 | fold change (FC) (T98G [43]): 6.4 | IC50 (U-118-MG): 91 µM | IC50 (LN-229): 86 µM | IC50 (T98G [45]): 97 µM
